In brackets after ≈: the same amount, converted by molar mass. Bounds are passed on as bounds.

The target in data set [1] is GABA-A receptor; anion channel. The data set can be described thus: Inhibition of [3H]muscimol binding to GABA A receptor with 10 e-4 M 4-biphenylacetic acid. The data set is classed as protein-complex assay.
Data set [2] deals with Mus musculus. Nature of the data set: Percentage of mice with convulsion with compound alone at 400 mg/kg. Format: functional.
The test system of data set [3] is Enterococcus faecalis. Nature of the data set: Minimum inhibition concentration against Enterococcus faecalis LS-101 strain. Format: functional.
Data set [4] concerns Escherichia coli. Nature of the data set: Minimum inhibition concentration against Escherichia coli NIHJ JC-2 strain. Format: functional.
Data set [5] concerns the target T1, GABA-A receptor; anion channel (Homo sapiens) (UniProt P14867+P47870+P18507+P28472+P48169+Q99928+Q9UN88+P34903+O00591+O14764+Q8N1C3+P18505+P78334+P47869+P31644+Q16445). The data set can be described thus: Percentage of GABA-induced chloride currents with 10 e-5 M 4-biphenylacetic acid. Format: functional. Particulars: Bull Frog.
Data set [6] relates to Mus musculus. The data set can be described thus: Percentage of mice with convulsion (400 mg/kg fenbufen). Format: functional.
The test system of data set [7] is Staphylococcus aureus. The data set can be described thus: Minimum inhibition concentration against Staphylococcus aureus FDA209P strain. The data set is classed as functional.
In data set [8] the target is GABA-A receptor; anion channel. Nature of the data set: Inhibition of [3H]muscimol binding to GABA A receptor with compound alone at 10 e-4 M. Format: protein-complex assay.
The subject of data set [9] is Pseudomonas aeruginosa. The data set can be described thus: Minimum inhibition concentration against Pseudomonas aeruginosa U-31 strain. Format: functional.
The target in data set [10] is T1, GABA-A receptor; anion channel (Homo sapiens). Nature of the data set: Percentage of GABA-induced chloride currents with 10e-4 M 4-biphenylacetic acid. Format: functional. The following applies: Bull Frog.
Data set [11] concerns Streptococcus pneumoniae. Nature of the data set: Minimum inhibition concentration against Streptococcus pneumoniae Type I strain. The data set is classed as functional.
For data set [12], the system named is Staphylococcus aureus. Nature of the data set: Minimum inhibition concentration against Staphylococcus aureus MRSA strain. The data set is classed as functional.
Data set [13] has as its target T1, GABA-A receptor; anion channel (Homo sapiens). Nature of the data set: Percentage of GABA-induced chloride currents with compound alone at 10 e-4 M. Format: functional. Particulars: Bull Frog.
Data set [14] has as its system Escherichia coli. The data set can be described thus: Effective dose against Escherichia coli KC14 strain in mouse. Format: functional.
Data set [15] deals with Escherichia coli. Nature of the data set: Minimum inhibitory concentration against Escherichia coli KC14 strain. Format: functional.
Data set [16] in a line: The compound was evaluated for the solubility in water at 25 degrees Centigrade. Format: ADME.
In data set [17] the target is GABA-A receptor; anion channel. The data set can be described thus: Inhibition of [3H]muscimol binding to GABA A receptor 4-biphenylacetic acid at 10 e-4 M. The data set is classed as protein-complex assay. The following applies: read-out: IC50.
Data set [18] relates to Staphylococcus aureus. Nature of the data set: Minimum inhibitory concentration against Staphylococcus aureus Smith. The data set is classed as functional.
The target of data set [19] is T1, GABA-A receptor; anion channel (Homo sapiens). Nature of the data set: Percentage of GABA-induced chloride currents, compound with 10E-4 M 4-biphenylacetic acid. The data set is classed as functional. The following applies: Bull Frog.
Data set [20] relates to Staphylococcus aureus. Nature of the data set: Effective dose against Staphylococcus aureus smith strain in mouse. The data set is classed as functional.

As for `O=C(O)c1cn(C2CC2)c2cc(N3CCOCC3)c(F)cc2c1=O`, the IC50 in data set [1] and in data set [8] was above 100 µM in each case. Besides, the Convulsion in data set [2] and in [6] was 0% each time. For the same molecule, the MIC in data set [3] is 0.78 µg/mL (≈ 2.35 µM); in [4], 0.2 µg/mL (≈ 0.602 µM); in data set [7] it was 0.05 µg/mL (≈ 0.15 µM); in [9] it was 1.56 µg/mL (≈ 4.69 µM); in [11], 3.13 µg/mL (≈ 9.42 µM); in data set [12], 0.1 µg/mL (≈ 0.301 µM). For the same molecule, the Currents in data set [5] turned out to be 99%; in data set [10] it was 91%; in [13], 100%.

Take `O=C(O)c1cn(C2CC2)c2c(F)c(N3CCOCC3)c(F)cc2c1=O`: the Convulsion in [2] and in [6] was 0% each time. In addition, the ED50 in data set [14] is on record as 0.056 mg mouse-1; in data set [20] it was 1.304 mg mouse-1. Moreover, the MIC in [15] was 0.1 µg/mL (≈ 0.285 µM); in data set [3], 0.78 µg/mL (≈ 2.23 µM); in [4], 0.1 µg/mL (≈ 0.285 µM); in data set [7] it was 0.025 µg/mL (≈ 0.0714 µM); in [9], 0.78 µg/mL (≈ 2.23 µM); in data set [18], 0.05 µg/mL (≈ 0.143 µM). For the same molecule, the MIC worked out at 0.39 µg/mL (≈ 1.11 µM) in data set [11] and 0.05 µg/mL (≈ 0.143 µM) in [12]. Also, the solubility in [16] was 9 µg/mL (≈ 25.7 µM). The Currents in data set [5] stood at 91%; in data set [19], 71%; in [13], 91%. Also, the IC50 in data set [17] and in data set [8] was above 100 µM each time.

With `CCn1cc(C(=O)O)c(=O)c2cc(F)c(N3CCOCC3)cc21`, the IC50 in [1] and in data set [8] was above 100 µM in each case. The Convulsion in data set [2] and in data set [6] was 0% throughout. In addition, the MIC in [3] is 3.13 µg/mL (≈ 9.77 µM); in [4] it was 0.78 µg/mL (≈ 2.44 µM); in data set [7], 0.2 µg/mL (≈ 0.624 µM); in data set [9] it was 3.13 µg/mL (≈ 9.77 µM); in data set [11], 12.5 µg/mL (≈ 39 µM); in data set [12], 0.39 µg/mL (≈ 1.22 µM). The Currents amounted to 100% in [5], 92% in data set [10] and 100% in data set [13].

For the molecule `CCn1cc(C(=O)O)c(=O)c2cc(F)c(N3CCNCC3)cc21` [NORFLOXACIN], the Convulsion in data set [2] is listed as 0%; in data set [6], 100%. Moreover, the ED50 in [14] amounted to 0.054 mg mouse-1; in [20], 1 mg mouse-1. The MIC was 0.05 µg/mL (≈ 0.157 µM) in data set [15]; 0.78 µg/mL (≈ 2.44 µM) in data set [3]; 0.1 µg/mL (≈ 0.313 µM) in data set [4]; 0.39 µg/mL (≈ 1.22 µM) in data set [7]; 0.39 µg/mL (≈ 1.22 µM) in data set [9]; 0.2 µg/mL (≈ 0.626 µM) in [18]. Further, the MIC in [11] was 3.13 µg/mL (≈ 9.8 µM); in data set [12], 12.5 µg/mL (≈ 39.1 µM). This molecule also had a solubility in [16] of 290 µg/mL (≈ 908 µM). In addition, the Currents in [5] turned out to be 0%; in [13], 38%. Also, the IC50 worked out at 0.02 µM in data set [17] and 13 µM in data set [8].

Broadly, the IC50 is the concentration at which inhibition is half-maximal. As usually defined, the MIC is the smallest concentration in the dilution series that meets the test's criterion for growth inhibition. A low value points to inhibition by little substance. As usually defined, the solubility is the dissolved amount per volume that the medium holds.
